Test results taken from patent publication US8796209B2, “Compositions and methods related to anti-FGF agents” (The Regents of the University of California, priority 2005, dated 2014).

What was measured:
Format in all cases: cell-based
M21 human melanoma cells [1] = test: Chemoresistance: cell viability with etoposide (MTS); conditions: etoposide 0.1-100 μM, 48 h
Protocol: In FIG. 10, results are provided showing suppression of FGF-induced drug resistance in M21 melanoma cells. Resistance of melanoma cells was to etoposide-induced apoptosis. M21 human melanoma cells were cultured in DMEM with 1% FBS for 48 h, and then treated with etoposide (0.1-100 μM) in the presence or absence of wt or mutant FGF for 48 h, with cell viability determined.
(§1) Cells were plated on well of 96-well tissue culture plates and serum-starved for 48-72 h in DMEM supplemented with 0-1% FBS. Then cells were treated with etoposide (up to 100 μM) and wt or mutant FGF for additional 24-48 h. Cell viability was determined using CellTiter 96 MTS assay (Promega) and caspases 3/7 activity was determined by using Caspase-Glo 3/7 assay kit (Promega). FIGS. 10 and 11.

M21 human melanoma cells [2] = test: Chemoresistance: caspases 3/7 activity with etoposide; conditions: in presence of wt FGF
Protocol: M21 human melanoma cells were cultured in DMEM with 1% FBS for 48 h, and then treated with etoposide (0.1-100 μM) in the presence or absence of wt or mutant FGF for 48 h.
as §1

αvβ3-K562 cells = test: Cell adhesion assay on immobilized FGF-1, αvβ3-K562 cells; conditions: 1 mM MnCl2
Protocol: Wells of 96-well microtiter plates were coated with FGF-1 at the indicated concentrations and remaining protein binding sites were blocked with 1 mg/ml BSA. Hepes-Tyrode buffer supplemental with 1 mM MnCl2) was used for adhesion assays. Prior to incubation with immobilized FGF-1, αvβ3-K562 cells were treated with 10 μg/ml anti-β3 function-blocking antibody 7E3 (triangle), anti-α5 function-blocking antibody KH72 (square), both 7E3 and KH72 (circle), or mouse IgG (diamond). BSA (cross) was used as a negative control. Data is shown as means+/−SD of triplicate experiments.
(§2) Wells of polystyrene 96-well non-tissue culture plate were coated with wild type or mutants FGF-1 as above. In adhesion assay, cells (10^5 cells/well) in 100 μl of Hepes-Tyrode buffer supplemented with 1 mM Mn^2+ were added to the wells and incubated at 37° C. for 1 h. After non-bound cells were removed by rinsing the wells with the same buffer, bound cells were quantified by measuring endogenous phosphatase activity (Prater et al., 1991)

K562 cells = test: Cell adhesion assay on immobilized FGF-1, mock-transfected K562 cells; conditions: 1 mM MnCl2
Protocol: K562 cells were treated with 10 μg/ml anti-α5 function-blocking antibody KH72 (square) or mouse IgG (diamond) for 10 min on ice. Hepes-Tyrode buffer supplemented with 1 mM MnCl2) was used for adhesion assays. Bound cells were quantified by measuring endogenous phosphatase activity. BSA (cross) was used as a negative control. Data is shown as means+/−SD of triplicate experiments.
as §2

Substance	effect on apoptosis induced by etoposide (M21 human melanoma cells [1])	effect on caspase activation (M21 human melanoma cells [2])	adhesion of αvβ3-K562 cells to the immobilized protein (αvβ3-K562 cells)	adhesion of mock-transfected K562 cells to the immobilized protein (K562 cells)
R50E: FGF-1 mutant with the Arg-50 to Glu (R50E) mutation	enhanced apoptosis	blocked inhibition of caspase activation		
Wild type: human FGF-1 (acidic FGF), wild type, expressed in E. coli			bound to immobilized FGF-1 in a dose-dependent manner	bound to immobilized FGF-1 in a dose-dependent manner
